Data reported in PMC10671498, “Antiproliferative and Cytotoxic Properties of Propynoyl Betulin Derivatives against Human Ovarian Cancer Cells: In Vitro Studies” (International Journal of Molecular Sciences, 2023).

How the values were obtained:
SK-OV-3 cells [1] = assay: SRB cell proliferation assay, SK-OV-3; type: cell-based, human; details: for IC50: Homo sapiens
Protocol: This study used ovarian cancer cell lines, which are part of the panel of cell lines used as part of the NCI-60 Human Cell Lines Screen program, characterized by overexpression of the c-erbB2/neu (HER2) receptor [62, 63]. The human ovarian cancer cell lines (SK-OV-3 and OVCAR-3) were purchased from the American Type Culture Collection (ATCC®, Manassas, Virginia, USA). SK-OV-3 cells (ATCC No. HTB-77™) were cultured in McCoy’s 5A medium containing D-glucose (3 g/L), L-glutamine (0.219 g/L), and sodium bicarbonate (2.2 g/L) supplemented with 10% fetal bovine serum, 10 mM HEPES (pH 7.3–7.5), 100 U/mL penicillin, and 100 μg/mL streptomycin (all from Sigma Aldrich).
(§1) Betulin 1 and its derivatives were dissolved in dimethyl sulfoxide (DMSO; Sigma Aldrich) as a 15 mM stock solution. Working solutions were prepared through the dilution of stock solutions with culture medium. The final DMSO concentration in culture media was adjusted to 0.2%. The effect of tested compounds on the proliferation of SK-OV-3 and OVCAR-3 cells was measured using the In Vitro Toxicology Assay Kit, Sulforhodamine B based (Sigma Aldrich). Cells were seeded in 96-well plates (Greiner Bio-One, Kremsmünster, Austria) at an initial density of 3 × 10^3 cells per well in 200 µL of culture medium. After 24 h of incubation, betulin 1 and its derivatives at a concentration range of 0.1 μM to 30 μM were added to the wells. Control cultures were treated with vehicle alone (0.2% DMSO). The incubation periods for cells with test compounds were 1 day, 3 days, and 5 days. After appropriate incubation periods, culture media were removed, and cells were fixed in 10% trichloroacetic acid solution for 60 min at 4 °C. After fixation, the TCA solution was removed, and the plates were washed three times with deionized water (300 μL/well) and dried. At the next step, cells were stained with 0.4% sulforhodamine B for 30 min. The excess dye was removed by washing three times with 1% (vol/vol) acetic acid. The protein-bound dye was dissolved in 200 μL 10 mM Tris base solution. Absorbance was measured at 570 nm and 690 nm (reference wavelength) using the MRX Revelation plate reader (Dynex Technologies, Chantilly, VA, USA).
(§2) GraphPad Prism 10.0.2 (GraphPad Software Inc., San Diego, CA, USA) software was used for calculations and the statistical analysis of the IC50 values (Table 1). IC50 was determined by using the “nonlinear regression” mode, and the “log(inhibitor) vs. normalised response—Variable slope” equation was chosen in GraphPad Prism software for calculations. The obtained data were normalized to run from 100% down to 0%, and logarithms of concentration were used. Graphs (Figure 2, Figure 3, Figure 4, Figure 5 and Figure 8, and Supplementary Figure S1) were also prepared using this software. In the case of the lack of normal distribution or homogeneity of variances, the remaining results were analyzed using a non-parametric Kruskal–Wallis test with multiple comparisons. Post hoc analysis was performed with the non-parametric equivalent of Tukey’s test. A p value of <0.05 was considered statistically significant. Otherwise, a one-way ANOVA followed by a Tukey’s post hoc test was applied. t-tests was used to perform pairwise comparisons between group means. Analysis was performed using Statistica 13.1 software (StatSoft, Tulsa, OK, USA).

OVCAR-3 cells [2] = assay: SRB cell proliferation assay, OVCAR-3; type: cell-based, human; details: for IC50: Homo sapiens
Protocol: OVCAR-3 cells (ATCC No. HTB-161™) were cultured in RPMI-1640 medium containing HEPES buffer (2.383 g/L), sodium bicarbonate (1.5 g/L), sodium pyruvate (0.11 g/L) supplemented with 20% fetal bovine serum, 10 µg/mL bovine insulin, 100 U/mL penicillin, and 100 μg/mL streptomycin (all from Sigma Aldrich).
as §1, §2

[3] = tested on: 18Co normal myofibroblasts; assay: SRB cell proliferation assay, 18Co normal myofibroblasts; type: cell-based
Protocol: Next, 18Co cells (ATCC No. CRL-1459™) were cultured in MEM medium containing HEPES buffer, 10% fetal bovine serum, 100 U/mL penicillin, and 100 μg/mL streptomycin (all from Sigma Aldrich).
as §1, §2

SK-OV-3 cells [4] = assay: LDH release assay, SK-OV-3; type: cell-based, human; details: SK-OV-3, 24 h, all concentrations (3, 10, 30 μM)
Protocol: (§3) In order to evaluate the cytotoxic effect, the release of LDH into the culture medium using the In Vitro Toxicology Assay Kit, Lactic Dehydrogenase Based (TOX7; Sigma Aldrich) was assessed. SK-OV-3 and OVCAR-3 cells were plated and cultured in 96-well plates (Greiner Bio-One) at the initial density of 5 × 10^3 cells per well in 100 µL of culture medium. The density of the cells was determined in the same manner as in the SRB assay. After 24 h, the media were replaced with the working solutions, which contained appropriate test compounds at concentrations of 3 μM, 10 μM, 30 μM, and control medium (0.2% DMSO). Cells were exposed to the test substances for 24 h. The background control comprised wells without cells with only control medium. To determine the maximal LDH release (high control), half of the control cultures were treated with lysis buffer. Wells with untreated cells were used as the low control of the assay. LDH activity in media was assessed according to the manufacturer’s protocol. The absorbance was measured at wavelengths of 490 nm and 690 nm (background), and the percentage of released enzyme was calculated for cells growing in the presence of compounds according to the formula:Cytotoxicity [%] = [(AT − AL)/(AH − AL)] × 100 where AT is the absorbance of treated wells; AL is low control; and AH is high control (maximal LDH release).
(§4) Cytotoxicity was expressed as a percentage of the released LDH calculated according to the difference between the absorbance of the treated and low control wells divided by the difference between the absorbance of the high control and low control wells.

OVCAR-3 cells [5] = assay: LDH release assay, OVCAR-3; type: cell-based, human; details: OVCAR-3, 24 h, all concentrations (3, 10, 30 μM)
Protocol: as §3, §4

A549 cells = tested on: A549 cells; set-up: method as in PMID 30947097; details: cited from earlier work
DU145 cells = tested on: DU145 cells; set-up: method as in PMID 30947097; details: cited from earlier work
Hs294T cells = tested on: Hs294T cells; set-up: method as in PMID 30947097; details: cited from earlier work
MV-4-11 cells = tested on: MV-4-11 cells; set-up: method as in PMID 30947097; details: cited from earlier work
CCRF/CEM cells = tested on: CCRF/CEM cells; set-up: method as in PMID 30947097; details: cited from earlier work
P388 cells = tested on: P388 cells; set-up: method as in PMID 30947097; details: cited from earlier work

## C#CC(=O)OC[C@]12CC[C@@H](C(=C)C)C1C1CCC3[C@@]4(C)CC[C@H](OP(=O)(OCC)OCC)C(C)(C)C4CC[C@@]3(C)[C@]1(C)CC2 (stereo partly shown) [Compound 3, 3-O-diethoxyphosphorylbetulin-28-O-propynoylbetulin]
SK-OV-3 cells [1]; SK-OV-3, 72 h
  IC50: 290 nM
SK-OV-3 cells [1]; SK-OV-3, 120 h
  IC50: 340 nM
SK-OV-3 cells [1]; SK-OV-3, SRB assay, 0.1–30 µM
  concentration at which antiproliferative activity (decrease in the number of cells) was evident: 1 µM
OVCAR-3 cells [2]; OVCAR-3, 72 h
  IC50: 900 nM
OVCAR-3 cells [2]; OVCAR-3, 120 h
  IC50: 490 nM
OVCAR-3 cells [2]; OVCAR-3, SRB assay, 0.1–30 µM
  concentration at which antiproliferative activity (decrease in the number of cells) was evident: 1 µM
[3]; 18Co, 5 days treatment, Neg: negative in the concentration used
  IC50: Neg
[3]; 72 h
  IC50: 12400 nM
SK-OV-3 cells [4]
  cytotoxicity (released LDH): strong cytotoxic effect
OVCAR-3 cells [5]
  cytotoxicity (released LDH): strongest cytotoxicity
A549 cells
  tumor growth inhibition: Significant tumor growth inhibition
DU145 cells
  tumor growth inhibition: Significant tumor growth inhibition
Hs294T cells
  tumor growth inhibition: Significant tumor growth inhibition
MV-4-11 cells
  tumor growth inhibition: Significant tumor growth inhibition
CCRF/CEM cells
  tumor growth inhibition: Significant tumor growth inhibition
P388 cells
  tumor growth inhibition: Significant tumor growth inhibition
